In PubChem BioAssay (NCI) one finds TGI and GI50 data, which are given here for 25 compounds.

Several values for one entry are separate records, joined by “and”; a condition that tells them apart may be missing. Equal entries are not always repeated.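 Cells were grown in 96-well plates and exposed to each compound for 48 hours at five concentrations; endpoints were interpolated linearly between bracketing concentrations, or set to the highest concentration if not reached. GI50 = concentration required for 50% inhibition of growth. TGI denotes the concentration required for complete inhibition of growth.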

Among the test systems are M19-MEL melanoma; DLD-1 colon; HOP-18 NSCLC; MDA-MB-435; BT-549 breast; T-47D breast; MCF7 breast; PC-3 prostate; NCI/ADR-RES ovarian; MDA-MB-231 breast.
What all share (test): NCI tumour cell line growth inhibition, 48 h

With `COC(=O)C12C3C4C1C1C2C3C41I` (configuration not stated), the TGI in the experiment with M19-MEL melanoma, in the experiment with DLD-1 colon and in the experiment on HOP-18 NSCLC was above 100 µM throughout.

With `CC(=O)O/C(C)=C\C(=O)O/N=C(\N)c1ccc(C)cc1`, the TGI in the experiment on DLD-1 colon was 50.9 µM; in the experiment with HOP-18 NSCLC it was 98.6 µM.

With `CC1=C(N2CC2)C(=O)c2nc3n(c2C1=O)CCC3O` (configuration not stated), the TGI in the experiment on MDA-MB-435 was 0.0484 µM; in the experiment with M19-MEL melanoma it was 3.57 µM; with BT-549 breast it was 0.0377 µM; in the experiment on T-47D breast, 2.04 µM; in the experiment with HOP-18 NSCLC, above 100 µM.

Regarding `c1cc2c(cnc3cscc32)s1`, the TGI in the experiment on M19-MEL melanoma and in the experiment on DLD-1 colon was above 100 µM in each case.

`CC1(C)C(=O)/C(=C\c2ccco2)C[C@]2(C)[C@H]3CC=C4[C@@H]5C[C@](C)(C(=O)O)CC[C@]5(C)CC[C@@]4(C)[C@]3(C)CC[C@@H]12`: the GI50 with MCF7 breast is 5.42 µM; with PC-3 prostate it was 3.93 µM; with MDA-MB-435, 12.1 µM; in the experiment with BT-549 breast it was 9.46 µM; with NCI/ADR-RES ovarian it was 10 µM; with T-47D breast, 5.66 µM. In addition, the GI50 in the experiment on MDA-MB-231 breast was 14.1 µM. In addition, the TGI in the experiment with MCF7 breast came to 26.2 µM; in the experiment on PC-3 prostate it was 23.1 µM; in the experiment on MDA-MB-435, 30.3 µM; in the experiment on BT-549 breast, 25.4 µM; with NCI/ADR-RES ovarian it was 29.2 µM; in the experiment on T-47D breast it was 35.1 µM. The same compound returned a TGI with MDA-MB-231 breast of 31.6 µM.

On to `CCCN(CCCCC(NC(C)=O)C(=O)NCc1ccccc1)C(=O)NC` (configuration not stated), for which the TGI in the experiment on M19-MEL melanoma and in the experiment on DLD-1 colon was above 100 µM in each case.

Turning to `CC(SC1=CC(=O)c2c(O)ccc(O)c2C1=O)C(=O)O` (configuration not stated), the values for the TGI with DLD-1 colon and in the experiment on HOP-18 NSCLC were above 57.1 µM and above 90.3 µM, respectively.

In the case of `[Cl][Sn]([c]1ccccc1)[c]1ccccc1`, the GI50 in the experiment on DLD-1 colon is 3.65 µM; with HOP-18 NSCLC, 3.27 µM. In addition, the TGI in the experiment on DLD-1 colon came out at 13.7 µM; in the experiment on HOP-18 NSCLC, 9.24 µM.

For `Cn1c(=O)c2c(nc3n2CCC(=O)N3)n(C)c1=O`, the TGI in the experiment on M19-MEL melanoma and in the experiment with DLD-1 colon was above 100 µM each time.

With `CCc1ccc(C2=C(O)C(=O)C(c3ccc(CC)cc3)=C(O)C2=O)cc1`, the GI50 in the experiment with MCF7 breast is 1.83 µM; with PC-3 prostate, 2.17 µM; in the experiment with MDA-MB-435 it was 1.89 µM; in the experiment with BT-549 breast, 1.76 µM; with NCI/ADR-RES ovarian, 2.21 µM; in the experiment with T-47D breast, 1.9 µM. The GI50 in the experiment with MDA-MB-231 breast is 2.53 µM. Also, the TGI with MCF7 breast was 5.05 µM; with PC-3 prostate, 7.95 µM; in the experiment on MDA-MB-435, 6.72 µM; in the experiment on BT-549 breast, 5.62 µM; in the experiment on NCI/ADR-RES ovarian, 5.86 µM; in the experiment on T-47D breast, 6.65 µM. Also, the TGI in the experiment on MDA-MB-231 breast is 11 µM.

As to `O=C1OCC2=Nc3cccc4cccc(c34)N12`, the TGI in the experiment on MCF7 breast, in the experiment on PC-3 prostate, in the experiment on MDA-MB-435, in the experiment on BT-549 breast, in the experiment on NCI/ADR-RES ovarian and with T-47D breast was above 100 µM each time. Further, in the experiment on MDA-MB-231 breast, the TGI is above 100 µM.

With `COc1cc2ccc3c4cc(OC)c(OCc5ccccc5)cc4cnc3c2cc1OC`, the TGI in the experiment on M19-MEL melanoma and in the experiment on DLD-1 colon was above 100 µM throughout.

For the compound `CC1=CC[C@@H]2C(C)(C)[C@@H](O)CC[C@@]2(C)[C@@H]1COc1ccc2ccc(=O)oc2c1`, the GI50 is 7.3 µM in the experiment on MCF7 breast; 3.28 µM in the experiment on PC-3 prostate; 10.3 µM in the experiment with MDA-MB-435; 2.9 µM in the experiment with BT-549 breast; 3.22 µM in the experiment on NCI/ADR-RES ovarian; 2.27 µM in the experiment on T-47D breast. For the same compound, the GI50 with MDA-MB-231 breast was 13.9 µM. Also, the TGI in the experiment with MCF7 breast came to 27 µM; with PC-3 prostate it was 15.9 µM; in the experiment on MDA-MB-435 it was 23.9 µM; with BT-549 breast, 8.23 µM; in the experiment with NCI/ADR-RES ovarian, 12.7 µM; in the experiment on T-47D breast, 7.14 µM. The compound further yielded a TGI in the experiment on MDA-MB-231 breast of 43.3 µM.

Take `Cc1cc(O)cc(C)c1/C=C/c1cncc(C(=O)N(C)C)c1`: the GI50 with MCF7 breast, with PC-3 prostate, with MDA-MB-435, in the experiment on BT-549 breast, in the experiment on NCI/ADR-RES ovarian and with T-47D breast was above 25 µM in each case. The GI50 in the experiment on MDA-MB-231 breast is above 25 µM. Moreover, the TGI with MCF7 breast, in the experiment with PC-3 prostate, in the experiment with MDA-MB-435, with BT-549 breast, in the experiment with NCI/ADR-RES ovarian and in the experiment with T-47D breast was above 25 µM in each case. In addition, the TGI in the experiment on MDA-MB-231 breast is above 25 µM.

With `ClCCn1cnc2c(SCc3ccccc3)ncnc21`, the GI50 was 1.65 µM in the experiment on MCF7 breast; 0.356 µM in the experiment with PC-3 prostate; 3.47 µM in the experiment on MDA-MB-435; 0.685 µM in the experiment on BT-549 breast; 4.94 µM in the experiment with NCI/ADR-RES ovarian; 11.7 µM with T-47D breast. The GI50 in the experiment on MDA-MB-231 breast was 30 µM. Further, the TGI in the experiment on MCF7 breast, in the experiment on PC-3 prostate, with MDA-MB-435, in the experiment with BT-549 breast, in the experiment with NCI/ADR-RES ovarian and in the experiment on T-47D breast was above 100 µM each time. Further, in the experiment on MDA-MB-231 breast, the TGI was above 100 µM.

Consider `Cc1ccc(-n2c(C)nc3c2C(=O)c2ccccc2C3=O)cc1`, for which the figures for the TGI in the experiment on M19-MEL melanoma and in the experiment with DLD-1 colon were 25.7 µM and above 100 µM, respectively.

In the case of `OC1CCC(Oc2cccc3cnc(Nc4ccc5nc[nH]c5c4)nc23)CC1` (configuration not stated), the GI50 is 0.217 µM with MCF7 breast; 0.254 µM in the experiment with PC-3 prostate; 0.612 µM with MDA-MB-435; 0.22 µM in the experiment on BT-549 breast; 1.6 µM with NCI/ADR-RES ovarian; 1.03 µM in the experiment on T-47D breast. The GI50 in the experiment with MDA-MB-231 breast is 0.389 µM. Further, the TGI in the experiment with MCF7 breast amounted to 3.1 µM; in the experiment on PC-3 prostate, 20.7 µM; in the experiment on MDA-MB-435, 12.1 µM; with BT-549 breast, 0.906 µM; with NCI/ADR-RES ovarian it was 13 µM; in the experiment on T-47D breast, 14.4 µM. Also, the TGI with MDA-MB-231 breast was 19.8 µM.

For the compound `O=C1C=C(c2cc(Br)c(O)c(Br)c2)/C(=C/c2cc(Br)c(O)c(Br)c2)O1`, the GI50 is 37 µM in the experiment on MCF7 breast; 25 µM with PC-3 prostate; 33.6 µM in the experiment on MDA-MB-435; 28.6 µM in the experiment with BT-549 breast; 40.3 µM in the experiment with NCI/ADR-RES ovarian; above 75 µM in the experiment with T-47D breast. The GI50 with MDA-MB-231 breast was 32 µM. In addition, the TGI in the experiment with MCF7 breast, in the experiment on PC-3 prostate, in the experiment on MDA-MB-435, in the experiment on BT-549 breast, with NCI/ADR-RES ovarian and in the experiment with T-47D breast was above 75 µM in each case. In addition, the TGI with MDA-MB-231 breast is above 75 µM.

With `Nc1ncnc2c1ncn2C1OC(C(=O)O)C(O)C1O` (configuration not stated), the TGI in the experiment on MCF7 breast, in the experiment with PC-3 prostate, with MDA-MB-435, in the experiment with BT-549 breast, with NCI/ADR-RES ovarian and with T-47D breast was above 100 µM each time. Moreover, the TGI in the experiment with MDA-MB-231 breast was above 100 µM.

As for `c1ccc(COc2ccc3[nH]c4c(ncc5[nH]c6ccccc6c54)c3c2)cc1`, the TGI came to 17.7 µM in the experiment with DLD-1 colon and 26.1 µM with HOP-18 NSCLC.

Regarding `Cc1ccc2c(c1)sc(-c1ccc(N(C)C)cc1)[n+]2C`, the GI50 with MCF7 breast was 0.745 µM; with PC-3 prostate, 0.677 µM; in the experiment on MDA-MB-435 it was 0.879 µM; in the experiment on BT-549 breast it was 0.464 µM; in the experiment with NCI/ADR-RES ovarian, above 95.8 µM; in the experiment on T-47D breast, 0.299 µM. In addition, in the experiment on MDA-MB-231 breast, the GI50 was 2.75 µM. For the same compound, the TGI in the experiment with MCF7 breast is 28.3 µM; with PC-3 prostate, 9.23 µM; in the experiment with MDA-MB-435, 13 µM; in the experiment on BT-549 breast, 8.08 µM; in the experiment with NCI/ADR-RES ovarian, above 100 µM; with T-47D breast it was 5.59 µM. In the experiment with MDA-MB-231 breast, this compound returned a TGI of 21.1 µM.

As for `Cn1cnc([N+](=O)[O-])c1Sc1ncnc2nc[nH]c12`, the GI50 is 2.92 µM and 3.69 µM with MCF7 breast; 25.6 µM and 45.9 µM with PC-3 prostate; 2.68 µM and 4.37 µM in the experiment on MDA-MB-435; 12.2 µM and 7.26 µM in the experiment with BT-549 breast; 3.27 µM and 5.39 µM in the experiment on NCI/ADR-RES ovarian; 2.75 µM and 4.51 µM in the experiment on T-47D breast. In the experiment on MDA-MB-231 breast, the GI50 is 8.83 µM and 11.7 µM. The TGI in the experiment with MCF7 breast, with PC-3 prostate, in the experiment with MDA-MB-435, in the experiment on BT-549 breast, with NCI/ADR-RES ovarian and in the experiment with T-47D breast was above 100 µM throughout. Moreover, the TGI with MDA-MB-231 breast is above 100 µM.

In the case of `O=[N+]([O-])/C=C\c1ccc2c(c1)OCO2`, the GI50 is 1.99 µM in the experiment on MCF7 breast; 2.62 µM in the experiment with PC-3 prostate; 2.16 µM in the experiment on MDA-MB-435; 2.15 µM in the experiment with BT-549 breast; 10.3 µM in the experiment on NCI/ADR-RES ovarian; 5.27 µM with T-47D breast. The GI50 in the experiment on MDA-MB-231 breast was 12.1 µM. In addition, the TGI in the experiment on MCF7 breast turned out to be 10.4 µM; in the experiment on PC-3 prostate it was 7.34 µM; with BT-549 breast, 4.8 µM; with NCI/ADR-RES ovarian, 29.3 µM; in the experiment on T-47D breast it was 26.2 µM; in the experiment on MDA-MB-231 breast, 27.5 µM.

With `CCC(=O)N1C/C(=C/c2ccc(OC)cc2)C(=O)/C(=C/c2ccc(OC)cc2)C1`, the GI50 with MCF7 breast is 0.498 µM; in the experiment on PC-3 prostate it was 2.17 µM; with MDA-MB-435, 1.23 µM; in the experiment on BT-549 breast, 1.88 µM; in the experiment with NCI/ADR-RES ovarian it was 3.54 µM; in the experiment on T-47D breast it was 5.1 µM. For the same compound, the GI50 in the experiment with MDA-MB-231 breast is 1.98 µM. The TGI was 12.2 µM in the experiment with MCF7 breast; 7.94 µM in the experiment on PC-3 prostate; 4.42 µM in the experiment on MDA-MB-435; 3.5 µM in the experiment with BT-549 breast; above 100 µM with NCI/ADR-RES ovarian; above 100 µM in the experiment with T-47D breast. In addition, the TGI in the experiment on MDA-MB-231 breast is 4.28 µM.

For `C=CCN(N=O)C(=O)N(CCC)CCCC(NC(C)=O)C(=O)NCc1ccccc1` (configuration not stated), the TGI in the experiment on M19-MEL melanoma and in the experiment on HOP-18 NSCLC was above 100 µM throughout.
